Patent US7772271B2 (priority 2004, dated 2010)

Structure (SMILES) | melting point
CC(C)OC(=O)Nc1ccc(-c2c(C#N)c3cc(OCCn4ccnc4)ccc3n2C2CCC2)cc1 [Compound 2631] | 185 to 188 °C
CCn1c(-c2ccc(NC(=O)OC3CCCC3)cc2)c(C#N)c2ccc(OCCOC)cc21 [Compound 1407] | 137 to 140 °C
CCOc1ccc2c(C#N)c(-c3ccc(C(=O)NCCc4ccccn4)cc3)n(C3CCC3)c2c1 [Compound 2250] | 194 to 195 °C
N#Cc1c(-c2cnc(NC3CC3)nc2)n(C2CCC2)c2cc(Oc3ncccn3)ccc12 [Compound 3328] | 227 to 229 °C
N#Cc1c(-c2ccc(NS(=O)(=O)C3CC3)cc2)n(CC2CC2)c2cc(N3CCCCC3)ccc12 [Compound 2908] | 191 to 194 °C
C[C@@H](OC(=O)Nc1ccc(-c2c(C#N)c3ccc(Oc4nccc(C(F)(F)F)n4)cc3n2C2CCC2)cc1)C1CC1 [Compound 2924] | 119 to 121 °C
CC(C)OC(=O)Nc1ccc(-c2c(C#N)c3ccc(OCC(O)Cn4cncn4)cc3n2C2CCC2)cc1 (centres unmarked) [compound 1420, {4-[3-Cyano-1-cyclobutyl-6-(2-hydroxy-3-[1,2,4]triazol-1-yl-propoxy)-1H-indol-2-yl]-phenyl}-carbamic acid isopropyl ester] | 209 to 215 °C
COCCOc1ccc2c(C#N)c(-c3ccc(NC(=O)OC(C)C(C)(C)C)cc3)n(C(C)C)c2c1 (centres unmarked) [Compound 2670] | 204 to 205 °C
CC(C)OC(=O)Nc1ccc(-c2c(C#N)c3ccc(OCCC4COC(C)(C)O4)cc3n2C2CCC2)cc1 (centres unmarked) [compound 1428, (4-{3-cyano-1-cyclobutyl-6-[2-(2,2-dimethyl-[1,3]dioxolan-4-yl)-ethoxy]-1H-indol-2-yl}-phenyl)-carbamic acid isopropyl ester] | 141 to 145 °C
CC(C)NC(=O)Nc1ccc(-c2c(C#N)c3ccc(Oc4ccc(Cl)nn4)cc3n2C2CCC2)cc1 [Compound 2762] | 264 to 269 °C
CCCS(=O)(=O)Nc1ccc(-c2c(C#N)c3ccc(Oc4ncccc4C#N)cc3n2CC2CC2)c(C)c1 [Compound 3249] | 235 to 239 °C
C[C@@H](OC(=O)Nc1ccc(-c2c(C#N)c3ccc(-n4ccccc4=O)cc3n2C2CCC2)cc1)C1CC1 [Compound 3315] | 237 to 238 °C
COCCOc1ccc2c(C#N)c(-c3ccc(NC(=O)OC4CCC4)cc3)n(C(C)C)c2c1 [Compound 2609] | 165 to 166 °C
CCOC(=O)Nc1ccc(-c2c(C#N)c3ccc(N4CCN(C)CC4)cc3n2CC)cc1 [compound 1339] | 177 to 178 °C
COCCN(C)C(=O)c1ccc2c(C#N)c(-c3ccc(NC(=O)O[C@H](C)C4CC4)cc3)n(C3CCC3)c2c1 [Compound 2791] | 96 to 98 °C
CCn1c(-c2ccc(NC(=O)C3CC3)cc2)c(C#N)c2ccc(OCCN3CCN(CCOC)CC3)cc21 [Compound 1414] | 163.9 to 168.8 °C
CCN(CC)C(=O)c1ccc2c(C#N)c(-c3ccc(NC(=O)OC(C)C)cc3)n(C3CCC3)c2c1 [Compound 2186] | 189 to 191 °C
C[C@@H](OC(=O)Nc1ccc(-c2c(C#N)c3ccc(OCS(C)(=O)=O)cc3n2C2CC2)cc1)C(F)(F)F [Compound 3054] | 190 to 196 °C
N#Cc1c(-c2ccc(NC(=O)OC(c3ccccc3)C(F)(F)F)cc2)n(C2CCC2)c2cc(OCCCCn3cncn3)ccc12 (centres unmarked) [Compound 2645] | 118 to 120 °C
CCCS(=O)(=O)Nc1ccc(-c2c(C#N)c3cc(C(=O)N(C)C)ccc3n2C2CCC2)cc1 [Compound 3094] | 236 to 237 °C
C[C@@H](OC(=O)Nc1ccc(-c2c(C#N)c3ccc(-n4ccccc4=O)cc3n2C2CCC2)cc1)C(F)(F)F [Compound 3316] | 244 to 245 °C
CCCS(=O)(=O)Nc1ccc(-c2c(C#N)c3ccc(Oc4nc(C)ccc4C#N)cc3n2C2CCC2)cc1 [Compound 3309] | 219 to 221 °C
CC(C)(C)OC(=O)NS(=O)(=O)Nc1ccc(-c2c(C#N)c3ccc(N4CCOCC4)cc3n2C2CC2)cc1 [Compound 3175] | 171 to 175 °C
CCS(=O)(=O)Nc1ccc(-c2c(C#N)c3ccc(N4CCCC4)cc3n2C2CCC2)cc1 [Compound 2962] | 244 to 250 °C
CCn1c(-c2ccc3c(ccn3S(=O)(=O)CC)c2)c(C#N)c2ccc(OC)cc21 [compound 1331] | 157 to 160 °C
CCCS(=O)(=O)Nc1ccc(-c2c(C#N)c3ccc(-c4ncccc4C#N)cc3n2C2CCC2)cc1 [Compound 3244] | 223 to 225 °C
Cc1cccn(-c2ccc3c(C#N)c(-c4ccc(NC(=O)OC(C)C)cc4)n(C4CCC4)c3c2)c1=O [Compound 3339] | 284 to 285 °C
C=COC(=O)Nc1cccc(-c2c(C#N)c3ccc(OCC)cc3n2C2CCC2)c1 [Compound 1355] | 163 to 164 °C

The next lines start with the values.

melting point | Structure (SMILES)
269 to 271 °C | CS(=O)(=O)Nc1ccc(-c2c(C#N)c3ccc(N4CCOCC4)cc3n2C2CCC2)cc1 [Compound 2915]
218 to 220 °C | CC(C)(C)OC(=O)Nc1ccc(-c2c(C#N)c3ccc(N4CCOCC4)cc3n2C2CCC2)cc1 [Compound 2764]
129 to 130 °C | CC(C)NC(=S)Nc1ccc(-c2c(C#N)c3ccc(OC4CCOCC4)cc3n2C2CCC2)cc1 [Compound 3158]
189 to 190 °C | C[C@@H](OC(=O)Nc1ccc(-c2c(C#N)c3ccc(OC4COCOC4)cc3n2C2CCC2)cc1)C(F)(F)F [Compound 2885]
148 to 150 °C | COCCOc1ccc2c(C#N)c(-c3ccc(C(=O)N4CCOCC4)cc3)n(C3CCC3)c2c1 [Compound 2754]
137 to 138 °C | CCCCNC(=O)Oc1ccc(-c2c(C#N)c3ccc(OC4CCOCC4)cc3n2C2CCC2)cc1 [Compound 2810]
192 to 193 °C | COCCOc1ccc2c(C#N)c(-c3ccc(NC(=O)OC(C)C4CC4)cc3)n(C3CCC3)c2c1 (centres unmarked) [compound 1423, [4-(3-cyano-1-cyclobutyl-6-(2-methoxyethoxy)-1H-indol-2-yl)-phenyl]-carbamic acid 1-cyclopropyl-ethyl ester]
203 to 205 °C | CC(OC(=O)Nc1ccc(-c2c(C#N)c3ccc(OC4CCOCC4)cc3n2C2CC2)cc1)C(C)(C)C (centres unmarked) [Compound 2648]
172 to 173 °C | CCOc1ccc2c(C#N)c(-c3ccc(C(=O)N4CC[C@@H](O)C4)cc3)n(C3CCC3)c2c1 [Compound 2251]
168 to 169 °C | N#Cc1c(-c2ccc(OC(=O)NC3CCCC3)cc2)n(C2CCC2)c2cc(OC3CCOCC3)ccc12 [Compound 2811]
170 to 172 °C | CC(C)Nc1ccc(-c2c(C#N)c3ccc(OC4CCOC4)cc3n2C2CC2)cc1 (centres unmarked) [Compound 2150]
129 to 130 °C | Cc1cc(-c2c(C#N)c3ccc(OC4CCOCC4)cc3n2C2CCC2)ccc1NC(=O)OC(C)C [Compound 2889]
183 to 184 °C | N#Cc1c(-c2ccc(NC(=O)OC3CCC3)cc2)n(C2CCC2)c2cc(OC3CCOC3)ccc12 (centres unmarked) [Compound 1455]
224 to 226 °C | N#Cc1c(-c2ccc(N3CCCS3(=O)=O)cc2)n(C2CCC2)c2cc(OC3CCOCC3)ccc12 [Compound 2749]
174 to 179 °C | Cc1cc(Cl)ccc1Nc1ccc(-c2c(C#N)c3ccc(OC4CCOCC4)cc3n2C2CCC2)cc1 [Compound 3161]
180 to 187 °C | N#Cc1c(-c2ccc(N3CCCCS3(=O)=O)cc2)n(C2CCC2)c2cc(OC3CCOCC3)ccc12 [Compound 3218]
